US8440652B2, “MST1 kinase inhibitors and methods of their use” (Lexicon Pharmaceuticals, Inc., priority 2011, dated 2013)
Read-outs that look alike come from different tables or passages of the source.

Target: T1, MST1 (Homo sapiens, UniProt Q13043)
T1 sequence (Q13043 1-487): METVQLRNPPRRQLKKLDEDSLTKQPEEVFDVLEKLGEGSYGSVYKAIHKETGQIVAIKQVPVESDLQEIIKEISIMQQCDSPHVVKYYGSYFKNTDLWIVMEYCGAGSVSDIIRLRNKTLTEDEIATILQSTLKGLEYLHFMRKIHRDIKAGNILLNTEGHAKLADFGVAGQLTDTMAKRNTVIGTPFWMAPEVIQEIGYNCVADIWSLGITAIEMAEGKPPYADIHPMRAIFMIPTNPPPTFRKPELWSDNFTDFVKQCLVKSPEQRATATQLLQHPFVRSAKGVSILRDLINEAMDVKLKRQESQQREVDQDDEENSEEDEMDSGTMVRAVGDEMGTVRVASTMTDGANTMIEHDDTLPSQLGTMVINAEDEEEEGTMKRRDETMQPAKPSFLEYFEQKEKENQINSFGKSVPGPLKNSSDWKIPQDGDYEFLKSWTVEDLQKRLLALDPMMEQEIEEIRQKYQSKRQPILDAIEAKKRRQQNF
Experiment: In vitro measurement of MST1 inhibition (Z′-Lyte kinase assay)
Format: biochemical
Experimental: Assays were performed in low-volume 384-well black proxiplates (Perkin Elmer, PE-Blk-Proxi-6008269). Eight compounds were first diluted into LDV (Echo) plates using a Multiprobe, at a starting concentration of 1 mM compound in 100% DMSO. Using the ECHO, 75 nl compound was pinged into 384-well proxiplates. The starting concentration of compound in each assay plate is 7.5 uM, followed by 3-fold dilutions, to give quadruplicate ten-point concentration curves. A 3× solution of MST1 enzyme in kinase buffer (Invitrogen, PR4940C) was added to wells containing compound or DMSO controls, followed by a 10 minute preincubation step. Reactions were initiated by adding 5 μL of a mixture of ATP and Z′-Lyte S/T Pep 7 (Invitrogen, PV3180) and proceeded at RT for 1 hour. […] At the end of the kinase reaction, 10 ul of developing solution (Invitrogen, catalog #PR4876B; development buffer A diluted […] in development buffer B) was added to each well and incubated at RT for 1 hr. All wells were read on a Tecan at 400 nm excitation and 460 nm/530 nm emission. Plus and minus enzyme controls were used to calculate percent inhibition and IC50 curves were generated using Excel.

[1] = 1 μM ATP, read-out: IC50 (μM) 1 μM ATP
[2] = 50 μM ATP, read-out: IC50 (μM) 50 μM ATP

## Nc1ncc(-c2ccc(S(=O)(=O)NC3CC3)cc2)cc1-c1ccc2c(c1)CCCNC2=O [4-(6-amino-5-(1-oxo-2,3,4,5-tetrahydro-1H-benzo[c]azepin-7-yl)pyridin-3-yl)-N-cyclopropylbenzenesulfonamide]
[1]
  IC50: < 0.01 µM
[2]
  IC50: < 0.01 µM

## CC1(C#N)CCc2cc(-c3cnc(N)c(-c4ccc5c(c4)CCNC5=O)c3)ccc21 (stereo not drawn) [5-(6-amino-5-(1-oxo-1,2,3,4-tetrahydroisoquinolin-6-yl)pyridin-3-yl)-1-methyl-2,3-dihydro-1H-indene-1-carbonitrile]
[1]
  IC50: < 0.15 µM
[2]
  IC50: < 0.01 µM

## CN(C1CC1)S(=O)(=O)c1ccc(-c2cnc(N)c(-c3ccc4c(c3)OCCNC4=O)n2)cc1 [4-(5-amino-6-(5-oxo-2,3,4,5-tetrahydrobenzo[f][1,4]oxazepin-8-yl)pyrazin-2-yl)-N-cyclopropyl-N-methylbenzenesulfonamide]
[1]
  IC50: < 0.01 µM
[2]
  IC50: < 0.01 µM

## Cc1ccc(-c2cnc(N)c(-c3ccc4c(c3)CCNC4=O)c2)s1 [6-(2-amino-5-(5-methylthiophen-2-yl)pyridin-3-yl)-3,4-dihydroisoquinolin-1(2H)-one]
[1]
  IC50: < 0.05 µM
[2]
  IC50: < 0.01 µM

## N#C[C@]1(c2ccc(-c3cnc(N)c(-c4ccc5c(c4)CCNC5=O)n3)cc2)[C@@H]2COC[C@@H]21 [(1R,5S,6s)-6-(4-(5-amino-6-(1-oxo-1,2,3,4-tetrahydroisoquinolin-6-yl)pyrazin-2-yl)phenyl)-3-oxabicyclo[3.1.0]hexane-6-carbonitrile]
[1]
  IC50: < 0.05 µM
[2]
  IC50: < 0.01 µM

## C[C@@H]1COc2cc(-c3cc(-c4ccc(S(=O)(=O)N(C)C5CC5)cc4)cnc3N)ccc2C(=O)N1 [(R)-4-(6-amino-5-(3-methyl-5-oxo-2,3,4,5-tetrahydrobenzo[f][1,4]oxazepin-8-yl)pyridin-3-yl)-N-cyclopropyl-N-methylbenzenesulfonamide]
[1]
  IC50: < 0.01 µM
[2]
  IC50: < 0.01 µM

## [2H]C1([2H])CNC(=O)c2ccc(-c3nc(-c4ccc(S(=O)(=O)N(C)C5CC5)cc4)cnc3N)cc21 [4-(5-amino-6-(4,4-dideutero-1-oxo-1,2,3,4-tetrahydroisoquinolin-6-yl)pyrazin-2-yl)-N-cyclopropyl-N-methylbenzenesulfonamide]
[1]
  IC50: < 0.01 µM
[2]
  IC50: < 0.01 µM

## CN(C1CC1)S(=O)(=O)c1ccc(-c2cnc(N)c(-c3ccc4c(c3)C3(CC3)CNC4=O)c2)cc1 [4-(6-amino-5-(1′-oxo-2′,3′-dihydro-1′H-spiro[cyclopropane-1,4′-isoquinolin]-6′-yl)pyridin-3-yl)-N-cyclopropyl-N-methylbenzenesulfonamide]
[1]
  IC50: < 0.01 µM
[2]
  IC50: < 0.01 µM

## C[C@@H]1C[C@H]1N(C)S(=O)(=O)c1ccc(-c2cnc(N)c(-c3ccc4c(c3)CCNC4=O)n2)cc1 [4-(5-amino-6-(1-oxo-1,2,3,4-tetrahydroisoquinolin-6-yl)pyrazin-2-yl)-N-methyl-N-((1R,2R)-2-methylcyclopropyl)benzenesulfonamide]
[1]
  IC50: < 0.01 µM
[2]
  IC50: < 0.01 µM

## Nc1ncc(-c2ccc(S(=O)(=O)NC3CC3)cc2)cc1-c1ccc2c(c1)C1(CC1)CNC2=O [4-(6-amino-5-(1′-oxo-2′,3′-dihydro-1′H-spiro[cyclopropane-1,4′-isoquinolin]-6′-yl)pyridin-3-yl)-N-cyclopropylbenzenesulfonamide]
[1]
  IC50: < 0.01 µM
[2]
  IC50: < 0.01 µM

## Nc1ncc(-c2ccc(S(=O)(=O)NC3CC3)cc2)nc1-c1cc2c(cn1)C(=O)NCC2 [4-(5-amino-6-(8-oxo-5,6,7,8-tetrahydro-2,7-naphthyridin-3-yl)pyrazin-2-yl)-N-cyclopropylbenzenesulfonamide]
[1]
  IC50: < 0.01 µM
[2]
  IC50: < 0.01 µM

## N#CC1(c2ccc(-c3cnc(N)c(-c4ccc5c(c4)C4(CC4)CNC5=O)c3)cc2)CCOCC1 [4-(4-(6-amino-5-(1′-oxo-2′,3′-dihydro-1′H-spiro[cyclopropane-1,4′-isoquinolin]-6′-yl)pyridin-3-yl)phenyl)tetrahydro-2H-pyran-4-carbonitrile]
[1]
  IC50: < 0.01 µM
[2]
  IC50: < 0.01 µM

## Cc1cc(-c2cnc(N)c(-c3ccc4c(c3)OCCNC4=O)n2)ccc1S(=O)(=O)NC1CC1 [4-(5-amino-6-(5-oxo-2,3,4,5-tetrahydrobenzo[f][1,4]oxazepin-8-yl)pyrazin-2-yl)-N-cyclopropyl-2-methylbenzenesulfonamide]
[1]
  IC50: < 0.05 µM
[2]
  IC50: < 0.01 µM

## CN(C)S(=O)(=O)N1CC=C(c2cnc(N)c(-c3ccc4c(c3)CCNC4=O)c2)CC1 [6-amino-N,N-dimethyl-5-(1-oxo-1,2,3,4-tetrahydroisoquinolin-6-yl)-5′,6′-dihydro-[3,4′-bipyridine]-1′(2′H)-sulfonamide]
[1]
  IC50: < 0.15 µM
[2]
  IC50: < 0.05 µM

## CN(C)C(C)(C)c1ccc(-c2cnc(N)c(-c3ccc4c(c3)CCNC4=O)c2)cc1 [6-(2-amino-5-(4-(2-(dimethylamino)propan-2-yl)phenyl)pyridin-3-yl)-3,4-dihydroisoquinolin-1(2H)-one]
[1]
  IC50: < 0.05 µM
[2]
  IC50: < 0.01 µM

## Nc1ncc(-c2ccc(S(=O)(=O)N3CCCCC3)cc2)nc1-c1ccc2c(=O)[nH]ccc2c1 [6-(3-amino-6-(4-(piperidin-1-ylsulfonyl)phenyl)pyrazin-2-yl)isoquinolin-1(2H)-one]
[1]
  IC50: < 0.01 µM
[2]
  IC50: < 0.01 µM

## CN(C1CC1)S(=O)(=O)c1ccc(-c2cnc(N)c(-c3ccc4c(c3)CCNC4=O)c2)cn1 [6′-amino-N-cyclopropyl-N-methyl-5′-(1-oxo-1,2,3,4-tetrahydroisoquinolin-6-yl)-[3,3′-bipyridine]-6-sulfonamide]
[1]
  IC50: < 0.01 µM
[2]
  IC50: < 0.01 µM

## CCCN(C)S(=O)(=O)c1ccc(-c2cnc(N)c(-c3ccc4c(c3)CCNC4=O)n2)cc1 [4-(5-amino-6-(1-oxo-1,2,3,4-tetrahydroisoquinolin-6-yl)pyrazin-2-yl)-N-methyl-N-propylbenzenesulfonamide]
[1]
  IC50: < 0.01 µM
[2]
  IC50: < 0.01 µM

## Cc1cc(-c2cnc(N)c(-c3ccc4c(c3)C(C)(C)CNC4=O)n2)ccc1S(=O)(=O)NC1CC1 [4-(5-amino-6-(4,4-dimethyl-1-oxo-1,2,3,4-tetrahydroisoquinolin-6-yl)pyrazin-2-yl)-N-cyclopropyl-2-methylbenzenesulfonamide]
[1]
  IC50: < 0.01 µM
[2]
  IC50: < 0.01 µM

## CCOc1cc(-c2cc(-c3ccc(F)cc3)cnc2N)ccc1C(N)=O [4-(2-amino-5-(4-fluorophenyl)pyridin-3-yl)-2-ethoxybenzamide]
[2]
  IC50: < 0.15 µM

## N#CC1CC1c1ccc(-c2cnc(N)c(-c3ccc4c(c3)CCNC4=O)n2)cc1 (stereo not drawn) [2-(4-(5-amino-6-(1-oxo-1,2,3,4-tetrahydroisoquinolin-6-yl)pyrazin-2-yl)phenyl)cyclopropanecarbonitrile]
[1]
  IC50: < 0.05 µM
[2]
  IC50: < 0.01 µM

## Cc1cc(-c2cnc(N)c(-c3ccc4c(c3)CCNC4=O)n2)ccc1C(C)(C)C#N [2-(4-(5-amino-6-(1-oxo-1,2,3,4-tetrahydroisoquinolin-6-yl)pyrazin-2-yl)-2-methylphenyl)-2-methylpropanenitrile]
[1]
  IC50: < 0.05 µM
[2]
  IC50: < 0.01 µM

## C=CCN(C)S(=O)(=O)c1ccc(-c2cnc(N)c(-c3ccc4c(c3)CCNC4=O)c2)cc1 [N-allyl-4-(6-amino-5-(1-oxo-1,2,3,4-tetrahydroisoquinolin-6-yl)pyridin-3-yl)-N-methylbenzenesulfonamide]
[1]
  IC50: < 0.01 µM
[2]
  IC50: < 0.01 µM

## CN(C1CC1)S(=O)(=O)c1ccc(-c2cnc(N)c(-c3ccc4c(c3)CCCNC4=O)c2)cc1 [4-(6-amino-5-(1-oxo-2,3,4,5-tetrahydro-1H-benzo[c]azepin-7-yl)pyridin-3-yl)-N-cyclopropyl-N-methylbenzenesulfonamide]
[1]
  IC50: < 0.01 µM
[2]
  IC50: < 0.01 µM

## CN(C1CC1)S(=O)(=O)c1ccc(-c2cc(-c3ccc4c(c3)CCNC4=O)c(N)nn2)cc1 [4-(6-amino-5-(1-oxo-1,2,3,4-tetrahydroisoquinolin-6-yl)pyridazin-3-yl)-N-cyclopropyl-N-methylbenzenesulfonamide]
[1]
  IC50: < 0.05 µM
[2]
  IC50: < 0.01 µM

## CC1(C)CNC(=O)c2ccc(-c3nc(-c4ccc(C5(C#N)CC5)cc4)cnc3N)cc21 [1-(4-(5-amino-6-(4,4-dimethyl-1-oxo-1,2,3,4-tetrahydroisoquinolin-6-yl)pyrazin-2-yl)phenyl)cyclopropanecarbonitrile]
[1]
  IC50: < 0.01 µM
[2]
  IC50: < 0.01 µM

## N#Cc1ccc(-c2cnc(N)c(-c3cc4c(cn3)C(=O)NCC4)n2)cc1 [4-(5-amino-6-(8-oxo-5,6,7,8-tetrahydro-2,7-naphthyridin-3-yl)pyrazin-2-yl)benzonitrile]
[1]
  IC50: < 0.01 µM
[2]
  IC50: < 0.01 µM

## Nc1ncc(-c2ccc(C(=O)NCc3ccccc3)cc2)cc1-c1ccc(C(=O)NO)cc1 [4-(2-amino-5-(4-(benzylcarbamoyl)phenyl)pyridin-3-yl)-N-hydroxybenzamide]
[2]
  IC50: < 0.15 µM
